Results taken from patent publication US20100040630A1, “METHODS AND COMPOSITIONS FOR TREATING BONE LOSS” (priority 2008, published 2010).

Experiments:
[1] = system: patients with early rheumatoid arthritis; assay: Study J: cortical hand bone loss by digital X-ray radiogrammetry metacarpal cortical index (DXR-MCI); assay type: in vivo, human; conditions: for median percentage DXR-MCI change: change from baseline
Description: Generally, the study included 768 patients with active RA for <3 years who were naïve to MTX. Clinical data collections and radiographic examinations of hands were performed at baseline, and after 26, 52 and 104 weeks of therapy. Hand bone loss was assessed by digital X-ray radiogrammetry (DXR), primarily as metacarpal cortical index (MCI), on the same radiographs used for joint damage assessments.
(§1) The radiographic and clinical data from this 2-year, multi-centre, double-blind, randomised controlled study (Study J) was previously been described in detail (see Breedveld et al. (2006) Arthritis Rheum 54:26-37). The efficacy and safety of adalimumab plus MTX was compared with adalimumab monotherapy and with MTX monotherapy for 799 adult patients with early (<3 years), aggressive RA (mean erosion score of approximately 12 Sharp units, estimated annual TSS progression of approximately 27 Sharp units) who previously had not been treated with MTX, cyclophosphamide, cyclosporine, azathioprin or more than 2 other DMARDs (Breedveld et al. (2006), supra). […] Radiographs from hands and feet were scored according to a modified Sharp score (range 0-398) (Breedveld et al. (2006), supra).
(§2) Digital X-ray radiogrammetry (DXR) (Sectra, Linkoping, Sweden) was used to measure hand bone mineral density (BMD) and metacarpal cortical index (MCI) on the same digitized hand X-rays used for assessment of radiographic joint damage. DXR is a computer version of the traditional radiogrammetry technique,[13] and have improved the method and its precision substantially. DXR has been described in detail.[14,15,16] On hand radiographs, the computer automatically recognizes regions of interest (ROI) around the narrowest part of the second, third, and fourth metacarpal bone and measures cortical thickness, bone width, and porosity 118 times per cm. DXR-BMD is defined as: c X VPAcomb X (1-p), where c is a constant (determined by the result that DXR-BMD, on average, is equal to the mid-distal forearm region of the Hologic QDR-2000 device); VPA is volume per area; and p is porosity. DXR-MCI is defined as the combined cortical thickness divided by the outer cortical diameter and is a relative bone measure independent of bone size, bone length, and image capture setting.[16.17] Both DXR-BMD and DXR-MCI provide substantial degrees of precision.[17]
DXR-BMD was intended to be the main outcome measure in this study. However, many radiographs could not be analysed for BMD because of unknown image resolution. Generally, the equation for DXR-BMD is based on volume per area and requires a defined or known resolution, since a distance in a digitised radiograph cannot be measured when the resolution is unknown. Thus, DXR-MCI, which is a relative measure independent of image resolution, was used as the primary outcome measure. […] [19]
(§3) To avoid bias regarding dominant vs. non-dominant hand and to achieve better accuracy, mean value measurements from both hands were used.[10] If the radiograph from one hand could not be analysed or were missing, the radiograph from the available hand for all analyses at the different time points was used.
(§4) Since the data were not normally distributed, non-parametric analyses were conducted. No imputations were performed. Baseline values were compared between treatment groups with the Kruskall-Wallis method for continuous variables and with the chi-squared method for categorical variables. Comparisons of changes in hand BMD were conducted following methodologies parallel and similar to ones employed in the original Study J. Two groups were compared in a hierarchical order with the Mann-Whitney U test (i.e., two-sided comparison of the combination group vs. MTX, followed by two-sided comparisons between the monotherapy treatment arms, and finally two-sided comparisons between the adalimumab monotherapy and the combination group). Each pair-wise comparison was completed only if the previous comparison was statistically significant. […]

[2] = system: patients with early rheumatoid arthritis; assay: Study J: radiographic joint damage, modified Sharp score; assay type: in vivo, human
Source text: as §1

[3] = system: patients with early rheumatoid arthritis; assay: Study J: hand bone mineral density by digital X-ray radiogrammetry (DXR-BMD); assay type: in vivo, human
Source text: as §1, §2
For comparison, results for DXR-BMD are also provided. All images of unknown resolution were analyzed by assuming 254 dpi (the scanning resolution for the radiographs before scoring). Several of the radiographs were, however, clearly of a resolution other than 254 dpi, most likely because they had been printed in non-true size before scanning. All available images from baseline were analyzed, as well as 26, 52 and 104 weeks, by DXR-BMD and calculated mean metacarpal width. Based on analyses from other studies with a controlled resolution, [19] a deviation from baseline width greater than 2% was believed to likely indicate an incorrect value. With this 2% value as a cut-off, 23% of the radiographs were excluded from further DXR-BMD analyses. The flow chart in FIG. 1 illustrates the patients who were included in the DXR-MCI and DXR-BMD analyses.
as §3
as §4, with “significant. Bone loss over time was expressed as a negative value.” for “significant.”

[4] = system: early (<3 yrs), active, MTX-naive RA patients; assay: Subanalysis of Study J: DXR-MCI hand bone loss by clinical response (DAS28 subgroups); assay type: in vivo, human; conditions: for Mean % DXR-MCI change / median % DXR-MCI change: baseline to 52 weeks
Description: As described above, Study J compared the efficacy of adalimumab plus MTX vs. MTX alone and adalimumab alone in early (<3 yrs), active, MTX-naive RA patients. The subanalysis described herein involved the MTX monotherapy and the combination therapy groups. Hand bone loss was assessed by digital X-ray radiogrammetry metacarpal cortical index (DXR-MCI), calculated from digitized radiographs (DXR, Sectra, Sweden). […] MCI percentage change from baseline to 52 weeks was evaluated for patients with different clinical response. Disease activity was assessed by DAS28 scores at 52 weeks in 4 subgroups: Remission=DAS28<2.60; Low disease activity=DAS28 2.61-3.20; Moderate disease activity=DAS28 3.21-5.20; and high disease activity=DAS28>5.20. Non-parametric group comparisons were performed.

[5] = system: RA patients; conditions: RA patients receiving infliximab; cited from earlier work
[6] = system: RA; conditions: 7.5 mg daily, compared with placebo; cited from earlier work
[7] = High disease activity (DAS28>5.20)
[8] = Low disease activity (DAS28 2.61-3.20)
[9] = Moderate disease activity (DAS28 3.21-5.20)

With adalimumab the “median percentage DXR-MCI change” value ([1]; 26 weeks) was −1.33%, the “median percentage DXR-MCI change” value ([1]; 52 weeks) was −2.45% and the “median percentage DXR-MCI change” value ([1]; 104 weeks) was −4.03%. For the same compound, the “effect on hand bone loss (in words)” value ([1]; early RA, Study J) was “protected against hand bone loss”, the “mean radiographic change in the modified Sharp score” value (shortened to “mean radiographic change”) ([2]; 26 weeks) was 2.1 units and the “median radiographic change in the modified Sharp score” value (shortened to “median radiographic change”) ([2]; 26 weeks) was 0.5 units. For the same compound, the “mean radiographic change” value ([2]; 52 weeks) was 3.3 units, the “median radiographic change” value ([2]; 52 weeks) was 0.5 units and the “mean radiographic change” value ([2]; 104 weeks) was 4.8 units. The “median radiographic change” value ([2]; 104 weeks) was 1.0 units, the “median DXR-BMD percentage change” value ([3]; 26 weeks) was −0.96% and the “median DXR-BMD percentage change” value ([3]; 52 weeks) was −1.97%. The “median DXR-BMD percentage change” value ([3]; 104 weeks) was −2.40% and the “hand bone loss in relation to clinically assessed disease activity (in words)” value ([4]; 52 weeks, DAS28 subgroups) was “reduces hand bone loss independent of clinically assessed disease activity”.

In the case of infliximab, the “bone loss in hip and spine (in words)” value [5] is listed as “arrested” and the “hand bone loss (in words)” value [5] is listed as “hand bone loss was not halted”.

In the case of `C[C@]12C=CC(=O)C=C1CC[C@@H]1[C@@H]2[C@@H](O)C[C@@]2(C)[C@H]1CC[C@]2(O)C(=O)CO` [prednisolone], the “rate of hand bone loss (in words)” value [6] is listed as “significantly reduce” and the “rate of radiographic joint damage (in words)” value [6] is listed as “significantly reduce”.

For `CN(Cc1cnc2nc(N)nc(N)c2n1)c1ccc(C(=O)N[C@@H](CCC(=O)O)C(=O)O)cc1` [MTX, methotrexate], the “median percentage DXR-MCI change” value ([1]; 26 weeks) was −1.42%, the “median percentage DXR-MCI change” value ([1]; 52 weeks) was −2.87% and the “median percentage DXR-MCI change” value ([1]; 104 weeks) was −4.62%. For the same compound, the “mean radiographic change” value ([2]; 26 weeks) was 3.4 units, the “median radiographic change” value ([2]; 26 weeks) was 1.0 units and the “mean radiographic change” value ([2]; 52 weeks) was 5.1 units. For the same compound, the “median radiographic change” value ([2]; 52 weeks) was 2.0 units, the “mean radiographic change” value ([2]; 104 weeks) was 6.4 units and the “median radiographic change” value ([2]; 104 weeks) was 2.0 units. For the same compound, the “median DXR-BMD percentage change” value ([3]; 26 weeks) was −1.20%, the “median DXR-BMD percentage change” value ([3]; 52 weeks) was −1.86% and the “median DXR-BMD percentage change” value ([3]; 104 weeks) was −3.58%. The “difference in bone loss among remission, low, moderate and high disease activity subgroups (in words)” value ([4]; 52 weeks) was “numerical differences”, the DXR-MCI percentage change ([4]; 52 weeks, pooled subgroup moderate and high disease activity (DAS28)) was −4.65% and the “Mean % DXR-MCI change” value [4, 7] was −4.64%. For the same compound, the “median % DXR-MCI change” value [4, 7] was −3.02%, the “Mean % DXR-MCI change” value [4, 8] was −2.98% and the “median % DXR-MCI change” value [4, 8] was −2.20%. For the same compound, the “Mean % DXR-MCI change” value [4, 9] was −4.65%, the “median % DXR-MCI change” value [4, 9] was −3.33% and the “Mean % DXR-MCI change” value ([4]; Remission (DAS28<2.60)) was −2.99%. For the same compound, the “median % DXR-MCI change” value ([4]; Remission (DAS28<2.60)) was −2.14%.
